Measured values from patent publication US8192962B2, “Processes for detecting toxic substances” (Daikin Industries, Ltd., priority 2001, dated 2012).

Test system: Unknown protein yeast genes
Experiment: DNA chip mRNA expression in yeast, unknown protein yeast genes (Table 1)
Format: cell-based, Saccharomyces cerevisiae S288C
How it was run: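 S. cerevisiae S288C grown at 25° C. in YPD to log phase, then exposed 2 h to a toxicant at a growth-inhibiting, non-lethal concentration; untreated cells as control. Poly(A) mRNA reverse-transcribed with Cy3-dUTP or Cy5-dUTP, hybridized >12 h at 65° C. to whole-genome yeast DNA chip; value = fluorescence ratio treated/untreated.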

CCCCCCCCCCCCOS(=O)(=O)[O-].[Na+] [(18), sodium lauryl sulfate]
The level of expressed mRNA in the presence of chemical substance/The level of expressed mRNA in the absence of chemical substance (yeast gene YKL151C, incubated two hours with chemical substance): 1.8 | The level of expressed mRNA in the presence of chemical substance/The level of expressed mRNA in the absence of chemical substance (yeast gene YKL153W, incubated two hours with chemical substance): 1.3 | The level of expressed mRNA in the presence of chemical substance/The level of expressed mRNA in the absence of chemical substance (yeast gene YKL195W, incubated two hours with chemical substance): 1.6 | The level of expressed mRNA in the presence of chemical substance/The level of expressed mRNA in the absence of chemical substance (yeast gene YKR091W, incubated two hours with chemical substance): 1.3 | The level of expressed mRNA in the presence of chemical substance/The level of expressed mRNA in the absence of chemical substance (yeast gene YLR054C, incubated two hours with chemical substance): 1.1 | The level of expressed mRNA in the presence of chemical substance/The level of expressed mRNA in the absence of chemical substance (yeast gene YLR149C, incubated two hours with chemical substance): 3.0 | The level of expressed mRNA in the presence of chemical substance/The level of expressed mRNA in the absence of chemical substance (yeast gene YLR152C, incubated two hours with chemical substance): 1.8 | The level of expressed mRNA in the presence of chemical substance/The level of expressed mRNA in the absence of chemical substance (yeast gene YLR194C, incubated two hours with chemical substance): 0.9 | The level of expressed mRNA in the presence of chemical substance/The level of expressed mRNA in the absence of chemical substance (yeast gene YLR324W, incubated two hours with chemical substance): 1.2 | The level of expressed mRNA in the presence of chemical substance/The level of expressed mRNA in the absence of chemical substance (yeast gene YLR350W, incubated two hours with chemical substance): 1.1 | The level of expressed mRNA in the presence of chemical substance/The level of expressed mRNA in the absence of chemical substance (yeast gene YLR387C, incubated two hours with chemical substance): 1.4 | The level of expressed mRNA in the presence of chemical substance/The level of expressed mRNA in the absence of chemical substance (yeast gene YLR460C): 1.1 | The level of expressed mRNA in the presence of chemical substance/The level of expressed mRNA in the absence of chemical substance (yeast gene YML117W, incubated two hours with chemical substance): 1.3 | The level of expressed mRNA in the presence of chemical substance/The level of expressed mRNA in the absence of chemical substance (yeast gene YMR009W, incubated two hours with chemical substance): 2.5 | The level of expressed mRNA in the presence of chemical substance/The level of expressed mRNA in the absence of chemical substance (yeast gene YMR067C, incubated two hours with chemical substance): 1.0 | The level of expressed mRNA in the presence of chemical substance/The level of expressed mRNA in the absence of chemical substance (yeast gene YMR090W): 2.8 | The level of expressed mRNA in the presence of chemical substance/The level of expressed mRNA in the absence of chemical substance (yeast gene YMR095C, incubated two hours with chemical substance): 1.0 | The level of expressed mRNA in the presence of chemical substance/The level of expressed mRNA in the absence of chemical substance (yeast gene YMR097C, incubated two hours with chemical substance): 1.8 | The level of expressed mRNA in the presence of chemical substance/The level of expressed mRNA in the absence of chemical substance (yeast gene YMR102C, incubated two hours with chemical substance): 2.8 | The level of expressed mRNA in the presence of chemical substance/The level of expressed mRNA in the absence of chemical substance (yeast gene YMR107W, incubated two hours with chemical substance): 8.1 | The level of expressed mRNA in the presence of chemical substance/The level of expressed mRNA in the absence of chemical substance (yeast gene YMR180C, incubated two hours with chemical substance): 1.7 | The level of expressed mRNA in the presence of chemical substance/The level of expressed mRNA in the absence of chemical substance (yeast gene YMR184W, incubated two hours with chemical substance): 2.0 | The level of expressed mRNA in the presence of chemical substance/The level of expressed mRNA in the absence of chemical substance (yeast gene YMR191W, incubated two hours with chemical substance): 2.1 | The level of expressed mRNA in the presence of chemical substance/The level of expressed mRNA in the absence of chemical substance (yeast gene YMR295C, incubated two hours with chemical substance): 3.4 | The level of expressed mRNA in the presence of chemical substance/The level of expressed mRNA in the absence of chemical substance (yeast gene YMR315W): 2.8 | The level of expressed mRNA in the presence of chemical substance/The level of expressed mRNA in the absence of chemical substance (yeast gene YMR316W, incubated two hours with chemical substance): 6.4 | The level of expressed mRNA in the presence of chemical substance/The level of expressed mRNA in the absence of chemical substance (yeast gene YNL044W, incubated two hours with chemical substance): 3.4 | The level of expressed mRNA in the presence of chemical substance/The level of expressed mRNA in the absence of chemical substance (yeast gene YNL074C, incubated two hours with chemical substance): 1.3 | The level of expressed mRNA in the presence of chemical substance/The level of expressed mRNA in the absence of chemical substance (yeast gene YNL092W, incubated two hours with chemical substance): 1.6 | The level of expressed mRNA in the presence of chemical substance/The level of expressed mRNA in the absence of chemical substance (yeast gene YNL115C, incubated two hours with chemical substance): 2.6 | The level of expressed mRNA in the presence of chemical substance/The level of expressed mRNA in the absence of chemical substance (yeast gene YNL144C): 2.8 | The level of expressed mRNA in the presence of chemical substance/The level of expressed mRNA in the absence of chemical substance (yeast gene YNL156C, incubated two hours with chemical substance): 1.9 | The level of expressed mRNA in the presence of chemical substance/The level of expressed mRNA in the absence of chemical substance (yeast gene YNL234W, incubated two hours with chemical substance): 1.0 | The level of expressed mRNA in the presence of chemical substance/The level of expressed mRNA in the absence of chemical substance (yeast gene YNL281W, incubated two hours with chemical substance): 0.9 | The level of expressed mRNA in the presence of chemical substance/The level of expressed mRNA in the absence of chemical substance (yeast gene YNL305C, incubated two hours with chemical substance): 1.6 | The level of expressed mRNA in the presence of chemical substance/The level of expressed mRNA in the absence of chemical substance (yeast gene YNR068C, incubated two hours with chemical substance): 1.0 | The level of expressed mRNA in the presence of chemical substance/The level of expressed mRNA in the absence of chemical substance (yeast gene YOL032W, incubated two hours with chemical substance): 1.8 | The level of expressed mRNA in the presence of chemical substance/The level of expressed mRNA in the absence of chemical substance (yeast gene YOL036W, incubated two hours with chemical substance): 0.9 | The level of expressed mRNA in the presence of chemical substance/The level of expressed mRNA in the absence of chemical substance (yeast gene YOL047C, incubated two hours with chemical substance): 1.0 | The level of expressed mRNA in the presence of chemical substance/The level of expressed mRNA in the absence of chemical substance (yeast gene YOL071W, incubated two hours with chemical substance): 2.0 | The level of expressed mRNA in the presence of chemical substance/The level of expressed mRNA in the absence of chemical substance (yeast gene YOL082W, incubated two hours with chemical substance): 2.5 | The level of expressed mRNA in the presence of chemical substance/The level of expressed mRNA in the absence of chemical substance (yeast gene YOL083W, incubated two hours with chemical substance): 3.2 | The level of expressed mRNA in the presence of chemical substance/The level of expressed mRNA in the absence of chemical substance (yeast gene YOL117W, incubated two hours with chemical substance): 1.4 | The level of expressed mRNA in the presence of chemical substance/The level of expressed mRNA in the absence of chemical substance (yeast gene YOL131W, incubated two hours with chemical substance): 0.9 | The level of expressed mRNA in the presence of chemical substance/The level of expressed mRNA in the absence of chemical substance (yeast gene YOL150C): 2.2 | The level of expressed mRNA in the presence of chemical substance/The level of expressed mRNA in the absence of chemical substance (yeast gene YOL162W, incubated two hours with chemical substance): 0.9 | The level of expressed mRNA in the presence of chemical substance/The level of expressed mRNA in the absence of chemical substance (yeast gene YOR019W, incubated two hours with chemical substance): 2.8 | The level of expressed mRNA in the presence of chemical substance/The level of expressed mRNA in the absence of chemical substance (yeast gene YOR197W, incubated two hours with chemical substance): 1.5 | The level of expressed mRNA in the presence of chemical substance/The level of expressed mRNA in the absence of chemical substance (yeast gene YPL087W, incubated two hours with chemical substance): 2.7 | The level of expressed mRNA in the presence of chemical substance/The level of expressed mRNA in the absence of chemical substance (yeast gene YPL196W, incubated two hours with chemical substance): 2.3 | The level of expressed mRNA in the presence of chemical substance/The level of expressed mRNA in the absence of chemical substance (yeast gene YPL206C, incubated two hours with chemical substance): 1.9 | The level of expressed mRNA in the presence of chemical substance/The level of expressed mRNA in the absence of chemical substance (yeast gene YPL222W, incubated two hours with chemical substance): 0.9 | The level of expressed mRNA in the presence of chemical substance/The level of expressed mRNA in the absence of chemical substance (yeast gene YPR023C, incubated two hours with chemical substance): 1.1 | The level of expressed mRNA in the presence of chemical substance/The level of expressed mRNA in the absence of chemical substance (yeast gene YPR151C, incubated two hours with chemical substance): 1.4
